# Results: US20100113430A1, “THIOXANTHENE DERIVATES USEFUL TO TREAT INFECTIOUS DISEASES” (BKG PHARMA APS, priority 2007, published 2010)
# Tests used:
# Format in all cases: cell-based
# [1] = tested on: Fluconazole Resistant Candida albicans clinical isolate; experiment: MIC (80% growth inhibition), broth microdilution NCCLS M27-A, fluconazole resistant Candida albicans; conditions: Candida albicans
# Method: The antimicrobial effect of N-dealkyl-trans-clopenthixol and N-dealkyl-trans-flupenthixol was studied by exposing cells to 0-8 μg/ml of the compounds in two-fold dilutions. Each experiment was repeated in triple duplicate. MIC values represent the mean values of two separate experiments.
# Clinical Isolate of A Fluconazole Resistant Candida albicans from a Patient with Candidemia.
# The isolates were subcultured for 24 h on Sabouraud glucose agar before susceptibility testing. Broth microdilution tests were performed according to NCCLS document M27-A (Ref: National Commitee for Clinical Laboratory Standards. (1997). Reference Method for Broth Dilution Antifungal Susceptibility Testing of Yeasts: Approved Standard M27-A. NCCLS, Wayne, Pa.)
# Microtitre plates were read spectrophotometrically at 530 nm, after mixing the wells by pipetting to resuspend yeast sediments. The MIC was defined as the lowest drug dilution resulting in 80% growth inhibition.
# [2] = tested on: multiresistant clinical isolate of Staphylococcus epidermidis; experiment: MIC, microdilution broth method (NCCLS), Staphylococcus epidermidis
# Method: (§1) Cell growth was tested using the Minimal Inhibitory Concentration (MIC) susceptibility tests by use of the microdilution broth method in accordance to the NCCLS Guidelines (NCCLS Guidelines, Methods for Dilution Antimicrobial Susceptibility Tests for Bacteria That Grow Aerobically; Approved Standard, Sixth Edition, Volume 23; Number 2). The minimum inhibitory concentration (MIC), is defined ad the lowest concentration of drug which inhibits growth of the test organism, in the sense that no visible growth is detected (total inhibition of growth). In example 2 MIC of the compounds used on fungal microorganisms was determined from the IC90 measurements according to NCCLS Guidelines.
# A log phase culture of bacteria was diluted with fresh pre-warmed Mueller-Hinton medium and adjusted to a defined OD at 600 nm in order to give a final concentration of 1×10^4-5 bacteria/ml medium. The bacterial culture was transferred to microtiter-plates and culture was added to each well. […] Trays were incubated at 37° C. by shaking in a robot analyzer, PowerWavex, software KC^4′ Kebo.Lab, Copenhagen, for 16 h and optical densities were measured at 600 nm during the incubation time in order to record growth curves. Wells containing bacterial culture without drug were used as controls to ensure correct inoculum size and bacterial growth during the incubation. Cultures were tested in order to detect contaminations. Each experiment was repeated in triplicate.
# A clinically relevant isolate of Staphylococcus epidermidis was cultured and assayed as described above for susceptibility towards the compounds listed in table 1.
# [3] = tested on: Staphylococci, Micrococci. Including MRSA; experiment: MIC/IC90 broad spectrum, Staphylococci and Micrococci; conditions: 30 strains, 20 resistant (20 MRSA)
# Method: as §1
# (§2) A log phase culture of bacteria was diluted with fresh pre-warmed Mueller-Hinton medium and adjusted to a defined OD at 600 nm in order to give a final concentration of 1×10^4-5 bacteria/ml medium. The bacterial culture was transferred to microtiter-plates and culture was added to each well. Drug was added to the bacterial culture in the wells as two-fold dilution series of drug in order to give final concentrations ranging from 0.03 to 128 μg/ml. Trays were incubated at 37° C. by shaking in a robot analyzer, PowerWavex, software KC^4′ Kebo.Lab, Copenhagen, for 16 h and optical densities were measured at 600 nm during the incubation time in order to record growth curves. Wells containing bacterial culture without drug were used as controls to ensure correct inoculum size and bacterial growth during the incubation. Cultures were tested in order to detect contaminations. Each experiment was repeated in triplicate. MIC values represent the mean values of two separate triplicate experiments. Intra- and interassay variation was <5%.
# (§3) Inhibition 90 (IC90) is defined as: OD responding a 90% growth inhibition.
# (§4) A broad spectrum of bacteria were cultured and assayed as described above for susceptibility towards N-dealkyl-clopenthixol.
# Streptococci = experiment: MIC/IC90 broad spectrum, Streptococci; conditions: 30 strains, 20 resistant
# Method: as §1, §2, §3, §4
# Gram negative sp. = experiment: MIC/IC90 broad spectrum, Gram negative sp.; conditions: 25 strains, 20 resistant
# Method: as §1, §2, §3, §4
# [4] = tested on: Enterococcus faecium resistant clinical isolates; experiment: MIC/IC90, resistant clinical isolates of Enterococcus faecium
# Method: as §1, §2
# Inhibition 90 (IC90) is defined as: OD responding a 90% growth inhibition. […]
# (§5) Clinically relevant isolates were cultured and assayed as described above.
# [5] = tested on: Candida glabrata Multiresistant isolate; experiment: MIC of cis- and trans-forms, Candida glabrata multiresistant isolate; conditions: Example 4
# Method: as §1
# Cultured microorganisms were assayed as described above. Cis- and trans-isomers of N-dealkyl-clopenthixol was added to the cultures.
# [6] = tested on: Enterococcus faecalis resistant clinical isolates; experiment: MIC/IC90, resistant clinical isolates of Enterococcus faecalis
# Method: as §1, §2, §3, §5
# [7] = tested on: clinically relevant resistant bacterial isolate S. Aureus; experiment: Growth inhibition by cis/trans combinations, resistant isolate S. Aureus; conditions: Cis-compound 16 μg/ml, Trans-compound 0 μg/ml
# Method: as §1
# as §2, with “Wells containing bacterial culture without drug were used as controls to ensure correct inoculum size and bacterial growth during the incubation. Cultures were tested in order to detect contaminations. Each experiment was repeated in triplicate. MIC values represent the mean values of two separate triplicate experiments. Intra- and interassay variation was <5%.” left out
# [8] = tested on: Candida albicans clinical isolate; experiment: MIC (90% growth inhibition), broth microdilution NCCLS M27-A, Candida albicans; conditions: strain 1. Candida albicans FR (fluconazole resistant)
# Method: as §1
# The antibacterial effect of demethylated/dealkylated phenothiazine or thioxanthene compounds were studied by growth inhibition studies exposing cells to 0-32 μg/ml of drug. Each experiment was repeated in triplicate. MIC values represent the mean values of two separate triplicate experiments.
# (§6) 4 clinical isolates of Candida sp. (including 3 fluconazole resistant isolates) were subcultured for 24 h on Sabouraud glucose agar before susceptibility testing. Broth microdilution tests were performed according to NCCLS document M27-A (Ref: National Committee for Clinical Laboratory Standards. (1997). Reference Method for Broth Dilution Antifungal Susceptibility Testing of Yeasts: Approved Standard M27-A. NCCLS, Wayne, Pa.). Microtitre plates were read spectrophotometrically at 530 nm, after mixing the wells by pipetting to resuspend yeast sediments. In this experiment, the MIC was defined as the lowest drug dilution resulting in 90% growth inhibition.
# [9] = tested on: Candida glabrata clinical isolates; experiment: MIC (90% growth inhibition), broth microdilution NCCLS M27-A, Candida glabrata
# Method: as §1, with “Guidelines. […]” for “Guidelines.”
# as §6
# [10] = multiresistant clinical isolate of Staphylococcus epidermidis, Example 1
# [11] = strain 2. Candida glabrata FR (fluconazole resistant)
# [12] = strain 4. Candida glabrata FR (fluconazole resistant)
molecule,measurement,setting,value
"OC(Cn1cncn1)(Cn1cncn1)c1ccc(F)cc1F [Fluconazole, reference compound]",MIC,[1],128 µg/mL
"Clc1ccc2c(c1)/C(=C\CCN1CCNCC1)c1ccccc1S2 [N-dealkyl-cis-clopenthixol, cis-1-(3-(2-chlorothioxanthen-9-ylidene)propyl)piperazine]",MIC,"[2]; Staphylococcus epidermidis multiresistant isolate, Example 6, isomers alone and 1:1 mixture",>8 µg/mL
same,MIC,[2]; [10],16 µg/mL
same,MIC (mean),[3],16 µg/mL
same,MIC (mean),Streptococci,16 µg/mL
same,MIC (mean),Gram negative sp.,>16 µg/mL
same,MIC,"[4]; Enterococcus faecium 11, VanA",>8 µg/mL
same,MIC,"[4]; Enterococcus faecium 12, VanA",>8 µg/mL
same,MIC,"[4]; Enterococcus faecium 13, VanB",>8 µg/mL
same,MIC,"[4]; Enterococcus faecium 14, HLAR",>8 µg/mL
same,MIC,"[4]; Enterococcus faecium 15, HLAR",>8 µg/mL
same,MIC,"[4]; Enterococcus faecium 16, BLR, CR",>8 µg/mL
same,MIC,"[4]; Enterococcus faecium 17, VanB",>8 µg/mL
same,MIC,"[4]; Enterococcus faecium 18, VanB",>8 µg/mL
same,MIC,"[4]; Enterococcus faecium 19, VanB",>8 µg/mL
same,MIC,"[4]; Enterococcus faecium multiresistant isolate, Example 4",16 µg/mL
same,MIC,[5],>16 µg/mL
same,MIC,"[6]; Enterococcus faecalis 1, VanA",>8 µg/mL
same,MIC,"[6]; Enterococcus faecalis 2, VanA",>8 µg/mL
same,MIC,"[6]; Enterococcus faecalis 3, VanA",>8 µg/mL
same,MIC,"[6]; Enterococcus faecalis 4, VanB",>8 µg/mL
same,MIC,"[6]; Enterococcus faecalis 5, Van B",>8 µg/mL
same,MIC,"[6]; Enterococcus faecalis 6, VanB",>8 µg/mL
same,MIC,"[6]; Enterococcus faecalis 7, VanA",>8 µg/mL
same,MIC,"[6]; Enterococcus faecalis 8, HLAR",>8 µg/mL
same,MIC,"[6]; Enterococcus faecalis 9, HLAR",>8 µg/mL
same,MIC,"[6]; Enterococcus faecalis 10, BLR, CR",>8 µg/mL
same,Growth inhibition,[7],100%
"Fc1ccc2c(c1)C(=CCCN1CCNCC1)c1ccccc1S2 [N-dealkyl-cis-flupenthixol, cis-1-(3-(2-fluor-thioxanthen-9-ylidene)propyl)piperazine]",MIC,[2]; [10],16 µg/mL
"FC(F)(F)c1ccc2c(c1)N(CCCN1CCNCC1)c1ccccc1S2 [N-deshydroxy-ethyl-Fluphenazine, reference compound]",MIC,[2]; [10],16 µg/mL
"CNCCC=C1c2ccccc2Sc2ccc(Cl)cc21 [N-desmethyl-Chlorprothixen, reference compound]",MIC,[2]; [10],16 µg/mL
same,MIC,[8],16 µg/mL
same,MIC,[9]; [11],16 µg/mL
same,MIC,[9]; [12],16 µg/mL
same,MIC,[9]; strain 5. Candida glabrata,16 µg/mL
"CNCCCN1c2ccccc2Sc2ccc(Cl)cc21 [N-desmethyl-chlorpromazine, reference compound]",MIC,[2]; [10],16 µg/mL
Desmethyl-perphenazin [reference compound],MIC,[2]; [10],16 µg/mL
same,MIC,[8],16 µg/mL
same,MIC,[9]; [11],16 µg/mL
same,MIC,[9]; [12],16 µg/mL
same,MIC,[9]; strain 5. Candida glabrata,16 µg/mL
